Consider 26 molecules from patent US7642270B2, “5-oxo-5,8-dihydro-pyrido-pyrimidine as inhibitors of c-fms kinase” (Janssen Pharmaceutica N.V., priority 2005, dated 2010).

The term IC50 denotes the concentration that inhibits the measured activity by half.

In one assay the target is c-fms (Homo sapiens, UniProt P07333). Kind of assay: c-fms autophosphorylation, fluorescence polarization competition immunoassay. The class given is biochemical.
Chain of c-fms (P07333 20-972): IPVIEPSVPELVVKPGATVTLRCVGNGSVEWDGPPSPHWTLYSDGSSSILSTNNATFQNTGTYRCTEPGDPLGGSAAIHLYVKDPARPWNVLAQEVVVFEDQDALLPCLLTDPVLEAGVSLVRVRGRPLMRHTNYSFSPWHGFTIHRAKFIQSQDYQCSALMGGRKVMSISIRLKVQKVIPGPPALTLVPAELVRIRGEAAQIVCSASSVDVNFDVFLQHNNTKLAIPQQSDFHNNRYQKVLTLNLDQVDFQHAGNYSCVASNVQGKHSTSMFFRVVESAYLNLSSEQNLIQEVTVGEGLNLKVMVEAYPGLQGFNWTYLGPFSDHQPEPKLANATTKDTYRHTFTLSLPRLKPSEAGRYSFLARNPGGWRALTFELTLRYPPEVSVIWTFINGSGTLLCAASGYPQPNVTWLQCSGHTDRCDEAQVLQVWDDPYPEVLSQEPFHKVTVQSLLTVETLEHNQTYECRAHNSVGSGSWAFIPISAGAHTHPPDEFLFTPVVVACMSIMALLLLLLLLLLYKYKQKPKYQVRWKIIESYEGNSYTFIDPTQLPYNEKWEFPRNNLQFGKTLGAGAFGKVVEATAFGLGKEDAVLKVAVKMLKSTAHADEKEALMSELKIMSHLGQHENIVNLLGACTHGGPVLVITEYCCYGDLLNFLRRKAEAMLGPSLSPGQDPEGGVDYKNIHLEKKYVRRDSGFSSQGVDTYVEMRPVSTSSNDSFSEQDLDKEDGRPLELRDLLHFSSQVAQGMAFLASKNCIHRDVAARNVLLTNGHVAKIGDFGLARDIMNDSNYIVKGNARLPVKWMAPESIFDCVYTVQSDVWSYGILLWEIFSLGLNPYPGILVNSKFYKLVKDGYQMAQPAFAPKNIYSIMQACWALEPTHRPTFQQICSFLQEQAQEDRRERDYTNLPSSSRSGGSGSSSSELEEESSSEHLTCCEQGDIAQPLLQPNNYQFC
Settings: not given
How it is done:
Autophosphorylation, Fluorescence Polarization Competition Immunoassay
The assay buffer used was 100 mM 4-(2-hydroxyethyl)piperazine 1-ethanesulfonic acid (HEPES), pH 7.5, 1 mM 1,4-dithio-DL-threitol (DTT), 0.01% (v/v) Tween-20. Compounds were diluted in assay buffer containing 4% dimethylsulfoxide (DMSO) just prior to the assay. […] The kinase reaction was initiated by adding 2 μL of 5 mM ATP (Sigma) in assay buffer. The final concentrations in the assay were 10 nM c-fms, 1 mM ATP, 5 mM MgCl2, 2% DMSO. Control reactions were ran in each plate: in positive and negative control wells, assay buffer (made 4% in DMSO) was substituted for the compound; in addition, positive control wells received 1.2 μL of 50 mM ethylenediaminetetraaceticacid (EDTA).
The plates were incubated at room temperature for 45 min. At the end of the incubation, the reaction was quenched with 1.2 μL of 50 mM EDTA (EDTA was not added to the positive control wells at this point; see above). Following a 5-min incubation, each well received 10 μL of a 1:1:3 mixture of anti-phosphotyrosine antibody, 10×, PTK green tracer, 10× (vortexed), FP dilution buffer, respectively (all from PanVera, cat. # P2837). The plate was covered, incubated for 30 min at room temperature and the fluorescence polarization was read on the Analyst.
The IC50 values shown in Table 1 are averages of three independent measurements.
In the case of `NC(=O)c1cn(-c2ccc3c(c2)CCC3)c2nc(Nc3ccc(CN4CCOCC4)cc3)ncc2c1=O` [Cpd 69, 8-Indan-5-yl-2-(4-morpholin-4-ylmethyl-phenylamino)-5-oxo-5,8-dihydro-pyrido[2,3-d]pyrimidine-6-carboxylic acid amide], the IC50 worked out at 18 nM.

The assay is the same for the next values; noted with them: 10 nM c-fms, 1 mM ATP, 5 mM MgCl2, 45 min room temperature; averages of three independent measurements; read-out: c-fms Autophosphorylation IC50.
Regarding `CCNC(=O)c1cn(C2CCCCC2)c2nc(Nc3cccc(N4CCN(C)CC4)c3)ncc2c1=O` [Cpd 65, 8-Cyclohexyl-2-[3-(4-methyl-piperazin-1-yl)-phenylamino]-5-oxo-5,8-dihydro-pyrido[2,3-d]pyrimidine-6-carboxylic acid ethyl amide], the IC50 was found to be 110 nM. For the molecule `CN1CCN(c2ccc(Nc3ncc4c(=O)c(C(=O)O)cn(-c5ccc6c(c5)CCC6)c4n3)cc2)CC1` [Cpd 6, 8-Indan-5-yl-2-[4-(4-methyl-piperazin-1-yl)-phenylamino]-5-oxo-5,8-dihydro-pyrido[2,3-d]pyrimidine-6-carboxylic acid], the IC50 amounted to 1100 nM. For `CN(C)Cc1cccc(Nc2ncc3c(=O)c(C(N)=O)cn(-c4ccc5c(c4)CCC5)c3n2)c1` [Cpd 76, 2-(3-Dimethylaminomethyl-phenylamino)-8-indan-5-yl-5-oxo-5,8-dihydro-pyrido[2,3-d]pyrimidine-6-carboxylic acid amide], the half-maximal inhibitory concentration (IC50) amounted to 18 nM. The same measure, in the same setting: the figure for `CCNC(=O)c1cn(-c2ccc3c(c2)CCC3)c2nc(Nc3ccc(C[C@H]4COC(=O)N4)cc3)ncc2c1=O` [Cpd 32, (4S)-8-Indan-5-yl-5-oxo-2-[4-(2-oxo-oxazolidin-4-ylmethyl)-phenylamino]-5,8-dihydro-pyrido[2,3-d]pyrimidine-6-carboxylic acid ethyl amide] is 33 nM; for `CN(C)C(=O)c1cccc(Nc2ncc3c(=O)c(C(N)=O)cn(-c4ccc5c(c4)CCC5)c3n2)c1` [Cpd 79, 2-(3-Dimethylcarbamoyl-phenylamino)-8-indan-5-yl-5-oxo-5,8-dihydro-pyrido[2,3-d]pyrimidine-6-carboxylic acid amide] it is 62 nM.

`CN1CCN(CC(=O)N2CCC(c3cccc(Nc4ncc5c(=O)c(C(N)=O)cn(-c6ccc7c(c6)CCC7)c5n4)c3)CC2)CC1` [Cpd 73, 8-Indan-5-yl-2-(3-{1-[2-(4-methyl-piperazin-1-yl)-acetyl]-piperidin-4-yl}-phenylamino)-5-oxo-5,8-dihydro-pyrido[2,3-d]pyrimidine-6-carboxylic acid amide]: the IC50 is over 1000 nM. As for `CN1CCN(CC(=O)N2CCC(c3ccc(Nc4ncc5c(=O)c(C(N)=O)cn(-c6ccc7c(c6)CCC7)c5n4)cc3)CC2)CC1` [Cpd 72, 8-Indan-5-yl-2-(4-{1-[2-(4-methyl-piperazin-1-yl)-acetyl]-piperidin-4-yl}-phenylamino)-5-oxo-5,8-dihydro-pyrido[2,3-d]pyrimidine-6-carboxylic acid amide], the IC50 amounted to 4100 nM.

On to `CCNC(=O)c1cn(-c2ccc3c(c2)CCC3)c2nc(Nc3ccc(N4CCN(C)CC4)cc3)ncc2c1=O` [Cpd 9, 8-indan-5-yl-2-[4-(4-methyl-piperazin-1-yl)-phenylamino]-5-oxo-5,8-dihydro-pyrido[2,3-d]pyrimidine-6-carboxylic acid ethylamide], for which the IC50 amounted to 68 nM. Still for that read-out and setting: the same measure for `CN1CCN(c2ccc(Nc3ncc4c(=O)c(C(N)=O)cn(C5CCCC5)c4n3)cc2)CC1` [Cpd 19, 8-Cyclopentyl-2-[4-(4-methyl-piperazin-1-yl)-phenylamino]-5-oxo-5,8-dihydro-pyrido[2,3-d]pyrimidine-6-carboxylic acid amide]: 56 nM; for `CNC(=O)c1cn(-c2ccc3c(c2)CCC3)c2nc(Nc3cccc(C(=O)N(C)C)c3)ncc2c1=O` [Cpd 80, 2-(3-Dimethylcarbamoyl-phenylamino)-8-indan-5-yl-5-oxo-5,8-dihydro-pyrido[2,3-d]pyrimidine-6-carboxylic acid methylamide]: 74 nM. Same read-out and setting: the same measure for `CCNC(=O)c1cn(-c2ccc3c(c2)CCC3)c2nc(Nc3ccc(OCC(O)CN(C)C)cc3)ncc2c1=O` (centres unmarked) [Cpd 12, 2-[4-(3-Dimethylamino-2-hydroxy-propoxy)-phenylamino]-8-indan-5-yl-5-oxo-5,8-dihydro-pyrido[2,3-d]pyrimidine-6-carboxylic acid ethylamide]: 77 nM.

Regarding `NC(=O)c1cn(-c2ccc3c(c2)CCC3)c2nc(Nc3ccc(CCN4CCOCC4)cc3)ncc2c1=O` [Cpd 27, 8-Indan-5-yl-2-[4-(2-morpholin-4-yl-ethyl)-phenylamino]-5-oxo-5,8-dihydro-pyrido[2,3-d]pyrimidine-6-carboxylic acid amide], the 50% inhibitory concentration (IC50) is 10 nM. Still for that read-out and setting: the same measure for `CN(C)CC(=O)N1CCC(c2cccc(Nc3ncc4c(=O)c(C(N)=O)cn(-c5ccc6c(c5)CCC6)c4n3)c2)CC1` [Cpd 71, 2-{3-[1-(2-Dimethylamino-acetyl)-piperidin-4-yl]-phenylamino}-8-indan-5-yl-5-oxo-5,8-dihydro-pyrido[2,3-d]pyrimidine-6-carboxylic acid amide]: 7400 nM; for `CCNC(=O)c1cn(C2CCCCC2)c2nc(Nc3ccc(CCN4CCOCC4)cc3)ncc2c1=O` [Cpd 59, 8-Cyclohexyl-2-[4-(2-morpholin-4-yl-ethyl)-phenylamino]-5-oxo-5,8-dihydro-pyrido[2,3-d]pyrimidine-6-carboxylic acid ethyl amide]: 190 nM.

As to `CCOC(=O)c1cn(-c2ccc3c(c2)CCC3)c2nc(Nc3ccc(OCC(O)CN(C)C)cc3)ncc2c1=O` (centres unmarked) [Cpd 2, 2-[4-(3-Dimethylamino-2-hydroxy-propoxy)-phenylamino]-8-indan-5-yl-5-oxo-5,8-dihydro-pyrido[2,3-d]pyrimidine-6-carboxylic acid ethyl ester], the 50% inhibitory concentration (IC50) is 440 nM.

Regarding `CNC(=O)c1cn(-c2ccc3c(c2)CCC3)c2nc(Nc3cccc(CN(C)C)c3)ncc2c1=O` [Cpd 77, 2-(3-Dimethylaminomethyl-phenylamino)-8-indan-5-yl-5-oxo-5,8-dihydro-pyrido[2,3-d]pyrimidine-6-carboxylic acid methylamide], the IC50 stood at 150 nM. On to `CNC(=O)c1cn(C2CCCCC2)c2nc(Nc3ccc(N4CCN(C)CC4)cc3)ncc2c1=O` [Cpd 61, 8-Cyclohexyl-2-[4-(4-methyl-piperazin-1-yl)-phenylamino]-5-oxo-5,8-dihydro-pyrido[2,3-d]pyrimidine-6-carboxylic acid methyl amide], for which the IC50 stood at 160 nM. In the case of `CCNC(=O)c1cn(C2CC3CCC2C3)c2nc(Nc3ccc(N4CCN(C)CC4)cc3)ncc2c1=O` (centres unmarked) [Cpd 83, 8-Bicyclo[2.2.1]hept-2-yl-2-[4-(4-methyl-piperazin-1-yl)-phenylamino]-5-oxo-5,8-dihydro-pyrido[2,3-d]pyrimidine-6-carboxylic acid ethylamide], the half-maximal inhibitory concentration (IC50) was determined as 300 nM. On the same count and under the same terms, the same measure for `CNC(=O)c1cn(C2CCCCC2)c2nc(Nc3cccc(N4CCN(C)CC4)c3)ncc2c1=O` [Cpd 64, 8-Cyclohexyl-2-[3-(4-methyl-piperazin-1-yl)-phenylamino]-5-oxo-5,8-dihydro-pyrido[2,3-d]pyrimidine-6-carboxylic acid methyl amide]: 50 nM; for `CCNC(=O)c1cn(-c2ccc3c(c2)CCC3)c2nc(Nc3ccc(CCS(=O)(=O)NC(C)C)cc3)ncc2c1=O` [Cpd 34, 8-Indan-5-yl-2-[4-(2-isopropylsulfamoyl-ethyl)-phenylamino]-5-oxo-5,8-dihydro-pyrido[2,3-d]pyrimidine-6-carboxylic acid ethyl amide]: over 1000 nM; for `CCNC(=O)c1cn(-c2ccc3c(c2)CCC3)c2nc(Nc3cccc(CN(C)C)c3)ncc2c1=O` [Cpd 78, 2-(3-Dimethylaminomethyl-phenylamino)-8-indan-5-yl-5-oxo-5,8-dihydro-pyrido[2,3-d]pyrimidine-6-carboxylic acid ethylamide]: 140 nM.

As for `CN1CCN(c2cccc(Nc3ncc4c(=O)c(C(N)=O)cn(-c5ccc6c(c5)CCC6)c4n3)c2)CC1` [Cpd 37, 8-Indan-5-yl-2-[3-(4-methyl-piperazin-1-yl)-phenylamino]-5-oxo-5,8-dihydro-pyrido[2,3-d]pyrimidine-6-carboxylic acid amide], the 50% inhibitory concentration (IC50) was found to be 8 nM. The same measure, in the same setting: the figure for `CCOC(=O)c1cn(-c2ccc3c(c2)CCC3)c2nc(Nc3cccc(N(C)C)c3)ncc2c1=O` [Cpd 5, 2-(3-Dimethylamino-phenylamino)-8-indan-5-yl-5-oxo-5,8-dihydro-pyrido[2,3-d]pyrimidine-6-carboxylic acid ethyl ester] is 590 nM; for `CN1CCN(c2ccc(Nc3ncc4c(=O)c(C(N)=O)cn(-c5ccc6c(c5)CCC6)c4n3)c(O)c2)CC1` [Cpd 25, 2-[2-Hydroxy-4-(4-methyl-piperazin-1-yl)-phenylamino]-8-indan-5-yl-5-oxo-5,8-dihydro-pyrido[2,3-d]pyrimidine-6-carboxylic acid amide] it is 93 nM.

With `CCNC(=O)c1cn(-c2ccc3c(c2)CCC3)c2nc(Nc3cccc(N4CCN(C)CC4)c3)ncc2c1=O` [Cpd 39, 8-Indan-5-yl-2-[3-(4-methyl-piperazin-1-yl)-phenylamino]-5-oxo-5,8-dihydro-pyrido[2,3-d]pyrimidine-6-carboxylic acid ethyl amide], the IC50 was found to be 13 nM.
